Results taken from ChEMBL document CHEMBL1201862, “PubChem BioAssay data set” (2004).
Activity calls are given as the source filed them.

Tests used:
[1] = A Cell Based Secondary Assay To Explore Cytotoxicity of Compounds that Sensitize Mycobacterium Tuberculosis to Beta-Lactam Antibiotics.; type: functional
[2] = molecular target: T1, Oxysterols receptor LXR-beta (Homo sapiens, UniProt P55055); test: LXR agonists, Gal4 luciferase reporter, dose response, counter-screen for ssDAF-12 agonist project, cell-based, luminescence, HEK293, S. stercoralis campaign (AID 720737); type: functional; conditions: read-out: IC50 (the source's name)
T1 sequence (P55055 whole entry): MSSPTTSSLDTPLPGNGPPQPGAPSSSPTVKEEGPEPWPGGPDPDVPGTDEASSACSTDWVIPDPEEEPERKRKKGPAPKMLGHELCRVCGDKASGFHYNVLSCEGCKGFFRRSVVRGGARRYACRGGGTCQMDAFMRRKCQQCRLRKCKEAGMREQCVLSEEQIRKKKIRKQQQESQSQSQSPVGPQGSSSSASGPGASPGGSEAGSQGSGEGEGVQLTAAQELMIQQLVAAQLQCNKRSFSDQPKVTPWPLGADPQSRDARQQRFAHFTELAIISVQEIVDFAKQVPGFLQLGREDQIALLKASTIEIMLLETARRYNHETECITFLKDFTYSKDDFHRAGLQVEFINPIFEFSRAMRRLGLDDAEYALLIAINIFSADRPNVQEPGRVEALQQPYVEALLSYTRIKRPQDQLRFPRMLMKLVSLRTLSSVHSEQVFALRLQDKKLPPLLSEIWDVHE

[3] = Luminescence-based cell-based high throughput dose response assay to identify activators of the DAF-12 from the parasite S. stercoralis (ssDAF-12).; type: functional
[4] = molecular target: T2, E3 ubiquitin-protein ligase XIAP (Homo sapiens, UniProt P98170); test: small molecules displacing peptide from XIAP – biochemical, IAP family, fluorescence polarization (AID 1018); type: functional
T2 sequence (P98170 whole entry): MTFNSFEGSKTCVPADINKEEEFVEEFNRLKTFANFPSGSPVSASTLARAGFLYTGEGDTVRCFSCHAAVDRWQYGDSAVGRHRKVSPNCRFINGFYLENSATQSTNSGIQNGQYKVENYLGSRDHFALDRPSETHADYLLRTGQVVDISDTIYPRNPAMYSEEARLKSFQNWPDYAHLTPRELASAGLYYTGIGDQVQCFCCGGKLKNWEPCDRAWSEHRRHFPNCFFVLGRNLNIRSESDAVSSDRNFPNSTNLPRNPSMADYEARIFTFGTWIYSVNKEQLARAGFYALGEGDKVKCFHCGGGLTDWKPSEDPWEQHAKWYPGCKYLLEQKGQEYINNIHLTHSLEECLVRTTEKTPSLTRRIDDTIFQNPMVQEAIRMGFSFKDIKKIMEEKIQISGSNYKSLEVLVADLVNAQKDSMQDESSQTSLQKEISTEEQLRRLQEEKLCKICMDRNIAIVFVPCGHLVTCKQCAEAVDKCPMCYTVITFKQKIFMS

[5] = molecular target: T2, E3 ubiquitin-protein ligase XIAP; test: Counter Screen using XIAP-Bir3 for Chemical Antagonists of Bir1/2 domains of IAP-family anti-apoptotic proteins. [Related pubchem assays (depositor defined):AID1018, AID1449, AID1514, AID1638, AID1749, AID1750, AID488957, AID488963]
HEK293 = test: EBV LMP1 TES2 canonical NF-kB signalling blockers – cell-based, HEK293, luciferase, cherry-pick, dose response (AID 588343); type: functional; conditions: Homo sapiens
[6] = viability loss in THP-1 monocytes – THP-1 cells, cytotoxicity control for Vif-APOBEC3G degradation inhibitor project, dose response (AID 1117359); type: functional; conditions: THP-1
[7] = molecular target: T3, Replicative DNA helicase DnaB (Mycobacterium tuberculosis, UniProt P9WMR3); test: DnaB intein splicing inhibitors, dose response, biochemical, cell-free fluorescence (AID 449749); type: functional
T3 sequence (P9WMR3 whole entry): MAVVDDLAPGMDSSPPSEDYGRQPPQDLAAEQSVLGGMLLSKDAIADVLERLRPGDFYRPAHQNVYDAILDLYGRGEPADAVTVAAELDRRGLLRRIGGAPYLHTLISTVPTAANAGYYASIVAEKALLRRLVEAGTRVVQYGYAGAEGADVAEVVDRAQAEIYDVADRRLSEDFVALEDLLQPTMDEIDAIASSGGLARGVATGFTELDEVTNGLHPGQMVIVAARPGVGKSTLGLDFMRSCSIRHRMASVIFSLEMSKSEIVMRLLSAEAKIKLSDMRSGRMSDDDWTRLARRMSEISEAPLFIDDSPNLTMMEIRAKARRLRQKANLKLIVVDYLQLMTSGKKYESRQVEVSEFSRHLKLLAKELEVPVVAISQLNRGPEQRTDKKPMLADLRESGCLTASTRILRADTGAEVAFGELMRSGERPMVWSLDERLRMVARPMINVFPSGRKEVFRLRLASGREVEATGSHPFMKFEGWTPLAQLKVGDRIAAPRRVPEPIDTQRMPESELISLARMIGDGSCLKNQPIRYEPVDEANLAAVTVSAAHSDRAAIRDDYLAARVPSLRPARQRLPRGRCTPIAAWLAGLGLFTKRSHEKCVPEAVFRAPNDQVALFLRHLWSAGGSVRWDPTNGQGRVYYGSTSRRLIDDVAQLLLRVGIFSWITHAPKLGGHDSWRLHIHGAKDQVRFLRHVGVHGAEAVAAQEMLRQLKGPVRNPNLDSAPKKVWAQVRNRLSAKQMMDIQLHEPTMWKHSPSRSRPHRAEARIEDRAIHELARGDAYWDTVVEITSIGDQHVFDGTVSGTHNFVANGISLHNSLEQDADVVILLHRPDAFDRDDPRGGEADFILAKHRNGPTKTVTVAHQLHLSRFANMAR

[8] = molecular target: T4, Tyrosyl-DNA phosphodiesterase 2 (Homo sapiens, UniProt O95551); test: potency against TDP2 phosphodiesterase activity – biochemical, epi absorbance, IC50, dose response (AID 743297)
T4 sequence (O95551 whole entry): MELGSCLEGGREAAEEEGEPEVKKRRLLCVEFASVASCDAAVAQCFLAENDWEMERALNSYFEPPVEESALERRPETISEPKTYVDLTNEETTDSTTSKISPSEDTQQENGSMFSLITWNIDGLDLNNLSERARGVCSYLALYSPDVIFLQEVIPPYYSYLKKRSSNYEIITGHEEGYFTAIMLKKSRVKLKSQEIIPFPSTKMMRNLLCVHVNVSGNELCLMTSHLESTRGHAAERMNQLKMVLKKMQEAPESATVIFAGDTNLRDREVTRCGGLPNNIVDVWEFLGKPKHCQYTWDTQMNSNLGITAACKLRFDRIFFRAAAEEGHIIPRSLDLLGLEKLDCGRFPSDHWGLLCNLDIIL

Protein RecA = molecular target: T5, Protein RecA (Mycobacterium tuberculosis, UniProt P9WHJ3); test: Fluorescence Cell-Free Homogeneous Dose Retest to Identify Inhibitors of RecA-Intein Splicing Activity. [Related pubchem assays (depositor defined):AID2097, AID2223, AID489010, AID492950]; type: functional
T5 sequence (P9WHJ3 whole entry): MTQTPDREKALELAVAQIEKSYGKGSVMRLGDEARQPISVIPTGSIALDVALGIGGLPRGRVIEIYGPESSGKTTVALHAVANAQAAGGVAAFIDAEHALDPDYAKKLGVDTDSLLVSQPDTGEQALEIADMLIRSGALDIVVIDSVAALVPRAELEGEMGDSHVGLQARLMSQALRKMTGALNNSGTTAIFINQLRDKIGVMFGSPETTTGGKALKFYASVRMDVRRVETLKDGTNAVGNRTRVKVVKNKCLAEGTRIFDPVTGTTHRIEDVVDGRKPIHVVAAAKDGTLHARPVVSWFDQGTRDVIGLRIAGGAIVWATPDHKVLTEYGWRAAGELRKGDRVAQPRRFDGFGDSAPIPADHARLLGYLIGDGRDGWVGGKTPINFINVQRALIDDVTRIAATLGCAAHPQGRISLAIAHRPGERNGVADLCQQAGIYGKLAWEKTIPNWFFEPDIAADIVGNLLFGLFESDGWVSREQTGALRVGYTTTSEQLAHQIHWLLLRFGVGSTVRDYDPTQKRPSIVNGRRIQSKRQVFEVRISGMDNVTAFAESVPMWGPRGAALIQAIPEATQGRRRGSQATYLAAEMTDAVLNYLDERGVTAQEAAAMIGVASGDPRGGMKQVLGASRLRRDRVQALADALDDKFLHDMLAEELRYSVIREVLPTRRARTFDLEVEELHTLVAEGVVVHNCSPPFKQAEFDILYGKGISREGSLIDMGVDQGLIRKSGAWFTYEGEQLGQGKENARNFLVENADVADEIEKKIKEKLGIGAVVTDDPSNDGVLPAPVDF

[9] = molecular target: Voltage-dependent T-type calcium channel subunit alpha-1H (Homo sapiens, UniProt O95180); type: functional;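 also: channel activity triggered by adding a high calcium stimulation buffer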
Sequence of Voltage-dependent T-type calcium channel subunit alpha-1H (O95180 whole entry): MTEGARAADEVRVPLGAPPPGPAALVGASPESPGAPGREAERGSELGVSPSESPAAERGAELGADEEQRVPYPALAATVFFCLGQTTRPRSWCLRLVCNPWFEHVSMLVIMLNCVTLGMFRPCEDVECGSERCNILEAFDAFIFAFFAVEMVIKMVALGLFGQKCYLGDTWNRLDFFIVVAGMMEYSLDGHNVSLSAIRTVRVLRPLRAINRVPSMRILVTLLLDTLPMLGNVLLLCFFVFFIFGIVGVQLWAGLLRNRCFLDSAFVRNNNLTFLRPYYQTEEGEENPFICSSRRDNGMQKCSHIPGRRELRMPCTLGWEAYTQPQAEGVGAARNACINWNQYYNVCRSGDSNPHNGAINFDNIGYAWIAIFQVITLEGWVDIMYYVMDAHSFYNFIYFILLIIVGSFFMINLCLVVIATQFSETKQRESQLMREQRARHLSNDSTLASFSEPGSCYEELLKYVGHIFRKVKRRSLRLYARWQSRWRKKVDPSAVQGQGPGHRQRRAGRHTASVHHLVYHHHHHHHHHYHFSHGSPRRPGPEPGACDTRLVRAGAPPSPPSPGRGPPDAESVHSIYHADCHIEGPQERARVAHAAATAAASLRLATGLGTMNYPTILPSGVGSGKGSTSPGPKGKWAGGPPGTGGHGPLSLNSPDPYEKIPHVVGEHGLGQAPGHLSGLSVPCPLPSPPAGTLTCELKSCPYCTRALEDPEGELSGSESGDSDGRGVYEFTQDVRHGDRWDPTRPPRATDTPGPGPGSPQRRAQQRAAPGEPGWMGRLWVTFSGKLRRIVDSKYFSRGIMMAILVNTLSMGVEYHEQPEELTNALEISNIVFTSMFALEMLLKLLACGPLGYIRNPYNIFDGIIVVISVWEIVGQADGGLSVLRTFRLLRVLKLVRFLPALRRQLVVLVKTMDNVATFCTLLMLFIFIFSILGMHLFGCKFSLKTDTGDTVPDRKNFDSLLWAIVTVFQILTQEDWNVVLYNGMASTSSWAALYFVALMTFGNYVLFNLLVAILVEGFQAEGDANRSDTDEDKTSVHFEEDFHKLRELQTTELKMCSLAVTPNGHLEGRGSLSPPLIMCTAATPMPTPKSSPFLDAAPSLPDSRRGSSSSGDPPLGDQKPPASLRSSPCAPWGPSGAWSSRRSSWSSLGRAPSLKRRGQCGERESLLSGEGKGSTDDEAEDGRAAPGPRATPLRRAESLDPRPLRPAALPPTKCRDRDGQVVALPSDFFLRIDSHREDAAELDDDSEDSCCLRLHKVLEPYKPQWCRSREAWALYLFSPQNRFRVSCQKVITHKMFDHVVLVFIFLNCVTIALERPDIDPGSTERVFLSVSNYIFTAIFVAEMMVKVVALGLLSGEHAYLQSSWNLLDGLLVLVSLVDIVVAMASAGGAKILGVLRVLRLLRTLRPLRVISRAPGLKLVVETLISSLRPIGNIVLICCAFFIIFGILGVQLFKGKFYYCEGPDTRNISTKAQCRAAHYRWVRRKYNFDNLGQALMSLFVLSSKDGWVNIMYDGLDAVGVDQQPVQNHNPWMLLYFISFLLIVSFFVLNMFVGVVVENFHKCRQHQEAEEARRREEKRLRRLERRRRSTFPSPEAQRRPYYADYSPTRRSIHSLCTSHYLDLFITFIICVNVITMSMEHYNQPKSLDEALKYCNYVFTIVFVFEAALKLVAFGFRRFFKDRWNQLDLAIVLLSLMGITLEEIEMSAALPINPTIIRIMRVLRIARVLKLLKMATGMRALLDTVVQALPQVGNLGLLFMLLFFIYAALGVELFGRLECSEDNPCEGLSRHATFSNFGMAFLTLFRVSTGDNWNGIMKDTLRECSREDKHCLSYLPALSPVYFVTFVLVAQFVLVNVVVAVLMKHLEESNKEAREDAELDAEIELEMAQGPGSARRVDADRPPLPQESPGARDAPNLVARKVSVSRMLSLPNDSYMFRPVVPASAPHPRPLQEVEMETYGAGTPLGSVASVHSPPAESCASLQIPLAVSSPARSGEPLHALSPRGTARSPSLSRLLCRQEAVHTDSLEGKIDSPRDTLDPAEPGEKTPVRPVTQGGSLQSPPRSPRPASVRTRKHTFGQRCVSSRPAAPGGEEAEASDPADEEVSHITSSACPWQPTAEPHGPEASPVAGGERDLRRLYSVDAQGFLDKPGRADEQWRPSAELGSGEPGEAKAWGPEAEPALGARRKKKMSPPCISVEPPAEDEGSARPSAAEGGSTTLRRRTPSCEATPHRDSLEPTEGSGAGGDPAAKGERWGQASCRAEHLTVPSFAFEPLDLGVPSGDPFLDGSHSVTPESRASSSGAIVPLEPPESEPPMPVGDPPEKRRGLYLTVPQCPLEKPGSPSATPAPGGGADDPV

[10] = viability of PTEN-deleted HCT116 cells – cell-based, HCT116 PTEN knockout, dose response (AID 1047); type: functional;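 also: HCT116 colon tumor cells with PTEN knocked out; cells exposed to compound for 60 hours before readout; potency for loss of cell viability measured by luminescence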
[11] = general mammalian cell viability loss – inhibitor set, cherry-pick, set 2, cytotoxicity control for miR-122 modulator project, dose response (AID 720697); type: functional, cell-based
[12] = viability of HCT116 lacking mutant beta-catenin – cell-based, human colon tumor, dose response (AID 1045); type: functional;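 also: HCT116 colon tumor cells with beta catenin knocked out; cells exposed to compound for 60 hours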
[13] = general mammalian cell viability loss – activator set, cherry-pick, cytotoxicity control for miR-122 modulator project, dose response (AID 720690); type: functional, cell-based;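 also: HEK293T human cells scored for general mammalian cytotoxicity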
[14] = molecular target: T6, Mannose-6-phosphate isomerase (Homo sapiens, UniProt P34949); test: MPI inhibition at elevated mannose 6-phosphate – biochemical, fluorescence intensity, high mannose 6-phosphate, primary screen (AID 1220)
T6 sequence (P34949 whole entry): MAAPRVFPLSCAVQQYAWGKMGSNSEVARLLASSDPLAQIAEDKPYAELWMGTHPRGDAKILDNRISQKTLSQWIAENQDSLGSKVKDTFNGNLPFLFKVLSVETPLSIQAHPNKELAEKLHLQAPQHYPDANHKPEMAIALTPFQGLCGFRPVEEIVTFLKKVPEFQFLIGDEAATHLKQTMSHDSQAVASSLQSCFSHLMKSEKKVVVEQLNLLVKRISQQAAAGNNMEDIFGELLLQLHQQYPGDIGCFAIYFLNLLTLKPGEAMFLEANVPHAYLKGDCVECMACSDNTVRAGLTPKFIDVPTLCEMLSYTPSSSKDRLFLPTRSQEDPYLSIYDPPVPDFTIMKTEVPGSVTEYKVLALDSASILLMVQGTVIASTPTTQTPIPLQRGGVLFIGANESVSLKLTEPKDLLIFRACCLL

[15] = molecular target: Induced myeloid leukemia cell differentiation protein Mcl-1 (Homo sapiens, UniProt Q07820); type: functional
Sequence of Induced myeloid leukemia cell differentiation protein Mcl-1 (Q07820 whole entry): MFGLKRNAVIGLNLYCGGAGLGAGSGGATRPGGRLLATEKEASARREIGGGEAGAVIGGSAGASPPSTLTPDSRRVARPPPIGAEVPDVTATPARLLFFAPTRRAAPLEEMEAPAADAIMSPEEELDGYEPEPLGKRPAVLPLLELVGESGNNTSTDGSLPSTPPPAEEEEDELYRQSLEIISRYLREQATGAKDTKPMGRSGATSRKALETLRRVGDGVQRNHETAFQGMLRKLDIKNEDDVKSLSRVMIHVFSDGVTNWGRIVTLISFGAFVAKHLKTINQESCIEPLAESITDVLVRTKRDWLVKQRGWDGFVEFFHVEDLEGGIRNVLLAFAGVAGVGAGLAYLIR

[16] = molecular target: T7, Ubiquitin-conjugating enzyme E2 N (Homo sapiens, UniProt P61088); type: functional;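 also: Dose-response confirmation in a TR-FRET assay detecting UBC13-driven polyubiquitin chain formation, inhibition measured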
T7 sequence (P61088 whole entry): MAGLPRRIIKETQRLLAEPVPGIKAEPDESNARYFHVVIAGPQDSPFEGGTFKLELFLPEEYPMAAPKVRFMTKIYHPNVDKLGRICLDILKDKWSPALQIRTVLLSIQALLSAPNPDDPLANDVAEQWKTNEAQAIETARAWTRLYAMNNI

[17] = molecular target: T8, DNA repair protein RAD52 homolog (Homo sapiens, UniProt P43351); type: functional, biochemical
T8 sequence (P43351 whole entry): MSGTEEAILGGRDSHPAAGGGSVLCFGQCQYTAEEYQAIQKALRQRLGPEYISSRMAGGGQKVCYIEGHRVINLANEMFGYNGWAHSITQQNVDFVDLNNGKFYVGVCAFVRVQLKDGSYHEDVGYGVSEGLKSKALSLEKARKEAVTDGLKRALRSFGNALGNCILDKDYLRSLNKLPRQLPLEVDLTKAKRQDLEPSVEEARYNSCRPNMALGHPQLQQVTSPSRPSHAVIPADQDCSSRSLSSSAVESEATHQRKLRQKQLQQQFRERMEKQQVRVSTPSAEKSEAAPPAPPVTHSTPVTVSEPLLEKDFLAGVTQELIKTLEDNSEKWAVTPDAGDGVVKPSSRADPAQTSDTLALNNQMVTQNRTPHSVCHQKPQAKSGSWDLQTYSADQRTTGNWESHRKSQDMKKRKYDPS

[18] = activation of miR-122 Renilla sensor silencing – cell-based, Huh7 psiCHECK-miR122, Renilla luciferase, cherry-picked, dose response (AID 651956); type: functional;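 also: huh7 hepatoma cells stably carrying a psiCHECK-2 miR-122 sensor plasmid; renilla luciferase signal reporting endogenous miR-122 activity after 48 h compound exposure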
[19] = Luminescence Cell-Based Dose Retest to Confirm Inhibitors of Cancer Stem Cells. [Related pubchem assays (depositor defined):AID2717, AID2721]; type: functional; conditions: Homo sapiens
Melanocortin receptor 4 = Melanocortin receptor 4 (Homo sapiens, UniProt P32245); type: functional, cell-based;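 also: Cell-based assay with luminescence read-out, confirmatory dose-response testing for agonist activity of biased ligands at MC4R; human U2OS cells with tagged receptor and beta-arrestin; potency of agonists that increase receptor coupling to beta-arrestin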
Sequence of Melanocortin receptor 4 (P32245 whole entry): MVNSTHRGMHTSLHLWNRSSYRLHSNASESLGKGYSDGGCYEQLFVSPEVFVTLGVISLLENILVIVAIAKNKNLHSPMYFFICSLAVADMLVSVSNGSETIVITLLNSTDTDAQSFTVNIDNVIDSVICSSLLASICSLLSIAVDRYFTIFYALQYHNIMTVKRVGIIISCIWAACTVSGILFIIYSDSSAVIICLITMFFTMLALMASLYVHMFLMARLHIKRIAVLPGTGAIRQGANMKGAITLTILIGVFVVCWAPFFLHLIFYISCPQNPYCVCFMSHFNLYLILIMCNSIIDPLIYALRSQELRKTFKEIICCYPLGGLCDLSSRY

Genome polyprotein = Genome polyprotein (dengue virus type 2, UniProt P29990); test: flavivirus cap methylation enzyme inhibition – biochemical, confirmation dose response, primary screen (AID 588689); type: functional
Sequence of Genome polyprotein (P29990 2492-3391 limits assumed): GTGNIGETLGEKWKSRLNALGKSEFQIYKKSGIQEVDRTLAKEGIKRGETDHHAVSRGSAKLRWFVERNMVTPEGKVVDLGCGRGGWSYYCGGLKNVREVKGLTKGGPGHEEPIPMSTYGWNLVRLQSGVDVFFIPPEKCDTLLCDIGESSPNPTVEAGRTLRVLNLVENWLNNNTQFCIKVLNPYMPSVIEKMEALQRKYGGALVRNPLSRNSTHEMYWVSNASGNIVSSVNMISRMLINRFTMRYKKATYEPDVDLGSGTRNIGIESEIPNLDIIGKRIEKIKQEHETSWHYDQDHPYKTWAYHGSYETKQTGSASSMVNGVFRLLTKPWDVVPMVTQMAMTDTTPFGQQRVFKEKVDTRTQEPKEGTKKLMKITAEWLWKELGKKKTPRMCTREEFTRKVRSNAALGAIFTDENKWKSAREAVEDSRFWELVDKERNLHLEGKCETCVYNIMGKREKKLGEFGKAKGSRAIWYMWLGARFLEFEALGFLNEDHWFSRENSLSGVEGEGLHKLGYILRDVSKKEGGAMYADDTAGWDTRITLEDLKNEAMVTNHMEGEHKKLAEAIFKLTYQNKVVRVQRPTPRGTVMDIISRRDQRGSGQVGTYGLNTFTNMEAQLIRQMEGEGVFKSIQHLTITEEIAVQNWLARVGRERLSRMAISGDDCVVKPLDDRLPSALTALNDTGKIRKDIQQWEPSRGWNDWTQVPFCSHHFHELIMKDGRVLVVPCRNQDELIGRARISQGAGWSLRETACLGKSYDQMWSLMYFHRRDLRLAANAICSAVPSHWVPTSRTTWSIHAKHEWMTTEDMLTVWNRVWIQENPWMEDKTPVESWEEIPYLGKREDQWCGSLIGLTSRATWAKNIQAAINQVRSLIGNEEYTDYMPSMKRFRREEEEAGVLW

SMILES: COc1ccc(-c2csc(NC(C)c3nc4cc(Cl)c(Cl)cc4n3CCCO)n2)cc1 (stereo not given)
- CC50 [1]: 15.4 µM (active)

SMILES: CC(C)(C)OC(=O)N1CCC(NC(=O)c2[nH]cnc2C(=O)Nc2ccccc2)CC1
- CC50 [1]: > 40 µM (active)

SMILES: CC(=O)Nc1ccc(N2C(=O)CC(Sc3nc4ccccc4s3)C2=O)cc1 (stereo not given)
- EC50 [2]: > 67.5 µM (inactive)
- IC50 [3]: > 67.5 µM (inactive)

SMILES: CCN1C(=O)c2ccccc2[S+]([O-])c2ccc(C(=O)N3CCCCCC3)cc21 (stereo not given)
- IC50 [4]: > 100 µM (not active)
- IC50 [5]: > 100 µM (inactive)

SMILES: COc1ccc(-n2c(SCC(=O)Nc3cc(C)on3)nc3c(c2=O)SCC3)cc1
- IC50 [4]: > 100 µM (not active)
- AC50 (HEK293): 98.6 µM (active)
- IC50 [5]: > 100 µM (inactive)

SMILES: CCN(Cc1ccccc1)Cc1nnnn1Cc1ccccc1
- CC50 [6]: > 40 µM (active)

SMILES: COc1cc(/C=C2/C(=O)N(c3ccc([N+](=O)[O-])cc3)N=C2N2CCOCC2)ccc1O
- AC50 [7]: 19.7 µM (active)
- IC50 [8]: > 128 µM (inactive)
- EC50 (Protein RecA): 6.68 µM (active)

SMILES: c1ccc(-c2ncc3c(ccc4ccccc43)n2)cc1
- EC50 [2]: > 67.6 µM (inactive)
- IC50 [3]: > 67.6 µM (inactive)

SMILES: O=C(NCc1cccs1)C1CC(c2ccccc2O)=NO1 (stereo not given)
- IC50 [4]: > 100 µM (not active)
- IC50 [5]: > 100 µM (inactive)

SMILES: CCC1C/C(=C/c2ccco2)C(=O)/C(=C/c2ccco2)C1 (stereo not given)
- CC50 [6]: > 40 µM (active)

SMILES: Cc1ccc(OCC(O)Cn2c(=N)n(Cc3ccccc3)c3ccccc32)cc1 (stereo not given)
- EC50 [9]: 4.11 µM (active)
- EC50 [10]: 4.53 µM (active)
- AC50 [11]: 7.65 µM (active)
- EC50 [12]: 4.31 µM (active)
- AC50 [13]: 14.4 µM (active)

SMILES: Cc1c(C(=O)N/N=C/c2ccc(-c3ccccc3[N+](=O)[O-])o2)sc(N)c1C#N
- IC50 [14]: > 50 µM (not active)
- IC50 [15]: 3.78 µM (active)

SMILES: CCCCCCOc1ccc(/C(C)=N/NC2=NCCN2)cc1
- IC50 [16]: > 20 µM (inactive)
- AC50 [17]: 23 µM (active)
- AC50 [11]: 16 µM (active)
- AC50 [18]: 22.2 µM (active)
- AC50 [19]: 3.05 µM (active)
- EC50 (Melanocortin receptor 4): > 89.1 µM (inactive)
- AC50 [13]: 16.3 µM (active)

SMILES: COc1ccccc1-c1ccc2c(c1)O[C@@H](CN(C)S(=O)(=O)c1ccc(F)cc1)[C@@H](C)CN([C@@H](C)CO)S2(=O)=O
- AC50 [13]: 42.4 µM (active)

SMILES: Oc1ccc2ccccc2c1/C=N\C12CN3CCN(CN(C3)C1)C2
- IC50 [14]: 27.6 µM (active)
- IC50 (Genome polyprotein): 53.9 µM (active)
